These results are taken from patent US20090247520A1, “INHIBITORS OF ANTIGEN RECEPTOR-INDUCED NF-kappa B ACTIVATION” (The Burnham Institute for Medical Research, priority 2008, published 2009).

One data set has as its system CLL B-cells. Description: Cytotoxicity in CLL B-cells by ATP levels. The settings on record: time-frame analyzed. The class given is cell-based, human.
In another data set the test system is Raf. Description: KINOMEscan competition binding assay, Raf. Further details: species or system human. The settings on record: 10 μM. An excerpt: CID-2858522 is not a potent protein kinase inhibitor. Protein kinases play critical roles in NF-κB activation. PKCs are proximal kinases in the NF-κB pathways activated by PMA/Ionomycin and by T- and B-cell antigen receptors, while the IKKs are distal kinases operating in the terminal segments of these and other NF-κB activation pathways. We therefore tested whether CID-2858522 inhibits members of these kinase families by in vitro kinase assays. For these experiments, we tested PKC-beta and PKC-theta (the PKC family members implicated in TCR/BCR signaling), and IKK-beta (a component of the IKK complex) (FIG. 6). […] In addition to assessing these three kinases by conventional in vitro kinase assays, a kinome screen was performed using a high throughput screening method, KINOMEscan™, which is an active-site dependent competition binding assay in which human kinases of interest are fused to a proprietary tag (Ambit). The amount of kinase bound to an immobilized, active-site directed ligand is measured in the presence and absence of the test compound. […] Thus, CID-2858522 inhibits none of the protein kinases previously implicated in regulating NF-κB.
In Vitro Kinase Assays. PKC-beta, PKC-theta and IKK-beta in vitro kinase assays were performed using the HTScan Kinase Assay Kit (Cell Signaling, Danvers, Mass.) according to manufacturer's protocols. […]

For another data set, the system named is MDP (NOD2) induced IL-6. Description: IL-6 in THP.1 cell cultures stimulated with MDP. The class given is cell-based. To be noted: data not shown. The source says:
FIG. 1 is a flow chart of screening and counter-screenings for selective inhibitors of antigen-receptor induced NF-κB pathway. A total of 114,889 compounds were screened. From a screen of 53,280 commercially available compounds (left column), 519 hits were obtained, of which 248 reconfirmed using the same primary screening assay. […] From these 11 active compounds, one hit, CID-2858522, inhibited PMA/Ionomycin-induced production of cytokine IL-8 by the HEK293 cell line. CID-2858522 was then characterized (right column). PDB was substituted for PMA to confirm suppression of an alternative PKC activator. Pathway selectivity was assessed using panels of cell lines, starting with HEK293 cells in which each of the remaining NF-κB activation pathways was stimulated, showing inhibition only of PMA/Ionomycin-induced NF-κB reporter gene activity (panel 1). […]

The subject of data set [1] is TNF-induced NF-κB reporter gene activity. The experiment in a line: TNF-induced NF-κB reporter counter-screen in HEK293-NFκB-Luc cells. The class given is cell-based. The settings on record: TNF 10 ng/mL; CID-2858522 at concentrations as high as 4 μM. As for the experimental part:
(A) Structures of two hit compounds, CID-2858522 (left) and CID-2998237 (right) are shown; (B, C) 293-NF-κB-luc cells were pretreated for 2 hrs with various concentration of either CID-2858522 (B) or CID-29982387 (C) and then stimulated with TNF (10 ng/mL) or PMA/lonomycin (10 ng/mL; 5 ng/mL) for 16 h. Luciferase activity was measured and data were expressed as a percentage relative to control treatment with DMSO only (mean±SD; n=3). (D) 293-NF-κB-luc cells were pretreated for 2 h with various concentrations of CID-2858522 or CID-2998237, then stimulated with PMA/lonomycin for 16 h. IL-8 release into the medium was measured, expressing data as a percentage relative to control cultures treated with DMSO (mean±SD; n=3). (E) 293-NF-κB-luc cells were pretreated with CID-2858522 and then stimulated with PDBu for 16 h, IL-8 production and NF-κB luciferase activity were measured as above. (F) 293-NF-κB-luc cells were pretreated for 2 h with various concentrations of CID-2858522 or a PKC inhibitor (Bisindolylmaleimide I) at 1 μM followed by PMA/Ionomycin (10 ng/mL) stimulation for 2 h, then p65-DNA-binding activity was measured in nuclear extracts (10 μg protein), expressing data as fold-increase relative to unstimulated cells (mean±SD; n=3).
Counter Screening and Secondary Assays. […] Luciferase activity was measured using Britelite kit (Perkin Elmer). […]

With `Cc1cc2nc(NCCCO)n(CC(=O)c3cc(C(C)(C)C)c(O)c(C(C)(C)C)c3)c2cc1C` [Compound 1, 2-(2-(3-Hydroxypropylamino)-5,6-dimethyl-1H-benzo[d]imidazol-1-yl)-1-(3,5-di-tert-butyl-4-hydroxyphenyl)ethanone], the “cytotoxicity in CLL B-cells” value in the data set on CLL B-cells was “not due to cytotoxicity”. The “inhibition of Raf” value in the data set with Raf was found to be 57%. Further, the “inhibition of MDP-induced NF-κB (IL-6 in THP.1)” value in the data set on MDP (NOD2) induced IL-6 is listed as “failed to inhibit”. The “inhibition of TNF-induced NF-κB reporter gene activity” value in data set [1] is recorded as “did not inhibit”.
